pEC50: −log10 of the molar value.

Sequence of human GPR40 (O14842 whole entry): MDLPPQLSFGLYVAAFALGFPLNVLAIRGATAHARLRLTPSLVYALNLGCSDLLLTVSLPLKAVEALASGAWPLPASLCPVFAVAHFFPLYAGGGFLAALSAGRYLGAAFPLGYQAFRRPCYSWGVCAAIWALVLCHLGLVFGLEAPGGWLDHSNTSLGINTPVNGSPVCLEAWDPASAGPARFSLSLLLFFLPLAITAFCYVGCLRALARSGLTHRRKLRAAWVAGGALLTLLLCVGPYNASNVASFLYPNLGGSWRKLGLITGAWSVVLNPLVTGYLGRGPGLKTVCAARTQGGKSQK

This test addresses human GPR40 (Homo sapiens (Human), UniProt O14842). Kind of test: GPR40 Calcium Flux Assay.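 Also: calcium flux followed with the Fluo-8 fluorescent dye, intensity read each second over 8 min as compounds were added to the cells.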 It counts as cell-based. To be noted: transfected HEK293 cells stably expressing human GPR40; Ca2+ mobilization; mean data; read-out: hGPR40 Ca^2+ Assay EC50. On the technique in general: Calcium assays in cells follow changes in intracellular calcium, usually with a dye or a luminescent sensor.
The term pEC50 denotes −log10 of the EC50, conventionally taken in molar units. In the case of `CC#C[C@@H](Cc1nnn[nH]1)c1ccc(OCc2ccc3scc(-c4ccc(OCCC(C)(C)O)cc4C)c3c2)nc1` [Cpd 43, (2R)-4-(4-(5-(((5-(1-(1H-Tetrazol-5-yl)pent-3-yn-2-yl)pyridin-2-yl)oxy)methyl)-benzo[b]thiophen-3-yl)-3-methylphenoxy)-2-methylbutan-2-ol], the pEC50 was 6.89. On to `CC#C[C@@H](Cc1nnn[nH]1)c1ccc(OCc2cnc3scc(-c4ccccc4C)c3c2)cc1` [Cpd 49, (2S)-5-((4-(1-(1H-Tetrazol-5-yl)pent-3-yn-2-yl)phenoxy)methyl)-3-(2-methylphenyl)thieno[2,3-b]pyridine], for which the pEC50 was 8.00. On to `CC#C[C@@H](Cc1nnn[nH]1)c1ccc(OCc2cnc3scc(-c4ccc(OC)cc4C)c3c2)cc1` [Cpd 50, (2S)-5-((4-(1-(1H-Tetrazol-5-yl)pent-3-yn-2-yl)phenoxy)methyl)-3-(4-methoxy-2-methylphenyl)thieno[2,3-b]pyridine], for which the negative logarithm of the EC50 (pEC50) is 7.28. Consider `CC#C[C@@H](Cc1nnn[nH]1)c1ccc(OCc2cc3c(-c4ccccc4C)csc3cn2)cc1` [Cpd 51, (2S)-5-((4-(1-(1H-Tetrazol-5-yl)pent-3-yn-2-yl)phenoxy)methyl)-3-(2-methylphenyl)thieno[2,3-c]pyridine], for which the pEC50 was 8.52. `CC#C[C@@H](Cc1nnn[nH]1)c1ccc(OCc2cc3c(-c4ccc(OC)cc4C)csc3cn2)cc1` [Cpd 52, (2S)-5-((4-(1-(1H-Tetrazol-5-yl)pent-3-yn-2-yl)phenoxy)methyl)-3-(4-methoxy-2-methylphenyl)thieno[2,3-c]pyridine]: the pEC50 was 9.00. `CC#C[C@@H](Cc1nnn[nH]1)c1ccc(OCc2ccc3scc(-c4ccccc4C)c3n2)cc1` [Cpd 53, (2S)-5-((4-(1-(1H-Tetrazol-5-yl)pent-3-yn-2-yl)phenoxy)methyl)-3-(2-methylphenyl)thieno[3,2-b]pyridine]: the pEC50 was 6.77. With `CC#C[C@@H](Cc1nnn[nH]1)c1ccc(OCc2ccc3scc(-c4ccc(OC)cc4C)c3n2)cc1` [Cpd 54, (2S)-5-((4-(1-(1H-Tetrazol-5-yl)pent-3-yn-2-yl)phenoxy)methyl)-3-(4-methoxy-2-methylphenyl)thieno[3,2-b]pyridine], the pEC50 is 6.74. To `CC#C[C@@H](Cc1nnn[nH]1)c1ccc(OCc2ccc3scc(C4CCCC4)c3c2)cc1` [Cpd 56, (2S)-5-(2-(4-((3-Cyclopentylbenzo[b]thiophen-5-yl)methoxy)phenyl)pent-3-yn-1-yl)-1H-tetrazole] belongs 7.27. Then `CC#C[C@@H](Cc1nnn[nH]1)c1ccc(OCc2ccc3scc(C(C)C)c3c2)cc1` [Cpd 58, (2S)-5-(2-(4-((3-Isopropylbenzo[b]thiophen-5-yl)methoxy)phenyl)pent-3-yn-1-yl)-1H-tetrazole], with 7.00; and `CC#C[C@@H](Cc1nnn[nH]1)c1ccc(OCc2ccc3scc(CCC)c3c2)cc1` [Cpd 59, (2S)-5-(2-(4-((3-Propylbenzo[b]thiophen-5-yl)methoxy)phenyl)pent-3-yn-1-yl)-1H-tetrazole], with 6.89; and `CC#C[C@@H](Cc1nnn[nH]1)c1ccc(OCc2ccc3sccc3c2)cc1` [Cpd 60, (2S)-5-(2-(4-(Benzo[b]thiophen-5-ylmethoxy)phenyl)pent-3-yn-1-yl)-1H-tetrazole], with 6.96. Then `CC#C[C@@H](Cc1nnn[nH]1)c1ccc(OCc2cc(C)c3scc(CCCC)c3c2)cc1` [Cpd 64, (2S)-5-(2-(4-((3-Butyl-7-methylbenzo[b]thiophen-5-yl)methoxy)phenyl)pent-3-yn-1-yl)-1H-tetrazole], with 6.48. Consider `CC#C[C@@H](Cc1nnn[nH]1)c1ccc(OCc2cc(C)c3scc(C4CCCC4)c3c2)cc1` [Cpd 65, (2S)-5-(2-(4-((3-Cyclopentyl-7-methylbenzo[b]thiophen-5-yl)methoxy)phenyl)pent-3-yn-1-yl)-1H-tetrazole], for which the pEC50 was 6.36.

(Values after patent publication US10106553B2, “Substituted benzothiophenyl derivatives as GPR40 agonists for the treatment of type II diabetes” (Janssen Pharmaceutica NV, priority 2016, dated 2018).)
